# Earlier results in patent US20030026872A1, “Compositions having enhanced aqueous solubility and methods of their preparation” (The Procter & Gamble Co., priority 2001, published 2003).
# Peptide text beside a SMILES is read from it.
# Conditions: relative to sucrose
row,Compound,relative sweetening intensity (RSI)
1,OC[C@@H](O)[C@H](O)[C@@H](O)CO [xylitol],about equal to sucrose
2,cyclamates,about 30 times that of sucrose
3,CC1=CC(=O)[N-]S(=O)(=O)O1.[K+] [acesulfame K],about 200 times that of sucrose
4,isomalt,about 0.5 times that of sucrose
5,OC[C@@H](O)[C@@H](O[C@H]1O[C@H](CO)[C@@H](O)[C@H](O)[C@H]1O)[C@H](O)[C@@H](O)CO [maltitol],about 0.8 times that of sucrose
6,OC[C@@H](O)[C@@H](O[C@@H]1O[C@H](CO)[C@H](O)[C@H](O)[C@H]1O)[C@H](O)[C@@H](O)CO [lactitol],about 0.4 times that of sucrose
7,OC[C@H]1O[C@H](O[C@]2(CCl)O[C@H](CCl)[C@@H](O)[C@@H]2O)[C@H](O)[C@@H](O)[C@H]1Cl [sucralose],about 600 times that of sucrose
8,O=C1NS(=O)(=O)c2ccccc21 [saccharin],about 300 times that of sucrose
9,C=C1C[C@@]23CC[C@H]4[C@@](C)(CCC[C@@]4(C)C(=O)O[C@@H]4O[C@H](CO)[C@@H](O)[C@H](O)[C@H]4O)[C@@H]2CC[C@]1(O[C@@H]1O[C@H](CO)[C@@H](O)[C@H](O)[C@H]1O[C@@H]1O[C@H](CO)[C@@H](O)[C@H](O)[C@H]1O)C3 [stevioside],about 300 times that of sucrose
10,"COC(=O)[C@H](Cc1ccccc1)NC(=O)[C@@H](N)CC(=O)O [aspartame, N-L-alpha-aspartyl-phenylalanine-l-methyl ester] (H-Asp-Phe-OMe)",about 180 times that of sucrose
11,OC[C@@H](O)[C@@H](O)[C@H](O)[C@H](O)CO [mannitol],about 0.7 times that of sucrose
12,OC[C@@H](O)[C@@H](O)[C@H](O)[C@@H](O)CO [sorbitol],about 0.6 times that of sucrose
13,CC(C)=CCC[C@](C)(O)[C@@H]1CCC(C)=CC1=O [hemandulcin],about 1000 times that of sucrose
14,OC[C@@H](O)[C@@H](O)CO [erythritol],about 0.7 times that of sucrose
15,C[C@@H](NC(=O)[C@@H](N)CC(=O)O)C(=O)NC1C(C)(C)SC1(C)C [alitame],about 2000 times that of sucrose
16,OC[C@H]1O[C@@](CO)(O[C@H]2O[C@H](CO)[C@@H](O)[C@H](O)[C@H]2O)[C@@H](O)[C@@H]1O [sucrose],one
